Assay results published in patent US10227331B2 (priority 2015, dated 2019).
Read-outs that look alike come from different tables or passages of the source.

Key:
[1] = target: VIM-1 (Pseudomonas aeruginosa (strain ATCC 15692 / DSM 22644 / CIP 104116 / JCM 14847 / LMG 12228 / 1C / PRS 101 / PAO1), UniProt A0A0F7KYQ8); experiment: biochemical; settings: CCF2-FA substrate, 2 hours at 25° C
Method in brief: (§1)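 Inhibitor was mixed with the metallo-β-lactamase and CCF2-FA. After 2 hours at 25° C, fluorescence of the coumarin–fluorescein cephalosporin substrate was read. IC50 was calculated with a 4-parameter fit.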

[2] = system: Escherichia coli expressing NDM-1 (CLB30005, CLB30016); assay type: cell-based; settings: with imipenem 1 μg/ml, 95% inhibition of bacterial growth; for Escherichia coli MITC95: NDM-1 (CLB30016)
Method in brief: (§2)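 Colonies from overnight 35 °C blood-agar cultures were suspended in saline, diluted 1:100 into 1.1× CAMHB and exposed to test compound with or without imipenem at 1 μg/ml. After 22–24 h at 35 °C, absorbance was read to find the concentration restoring imipenem susceptibility.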

[3] = system: Klebsiella pneumoniae expressing VIM-1 (IHMA599644); assay type: cell-based; settings: with imipenem 1 μg/ml, 95% inhibition of bacterial growth; for Klebsiella pneumoniae MITC95: VIM-1 (IHMA599644)
Method in brief: as §2

[4] = system: Serratia marcescens expressing IMP-1 (CL5741); assay type: cell-based; settings: with imipenem 1 μg/ml, 95% inhibition of bacterial growth; for Serratia marcescens MITC95: IMP-1 (CL5741)
Method in brief: as §2

[5] = system: P. aeruginosa expressing IMP-1, efflux− (MB9799); experiment: Efflux: concentration of MBL inhibitor which restores susceptibility to imipenem; assay type: cell-based, Pseudomonas aeruginosa; settings: imipenem at 2 μg/mL, in the presence of a class A, C, D serine β-lactamase inhibitor closely related to relebactam
Text: (§3) The strain background is Pseudomonas aeruginosa PAO1.

[6] = target: IMP-1 (Serratia marcescens, UniProt P52699); experiment: biochemical; assay type: biochemical
Method in brief: as §1

[7] = target: NDM-1 (Klebsiella pneumoniae, UniProt C7C422); experiment: biochemical; assay type: biochemical; settings: CCF2-FA substrate, 2 hours at 25° C; read-out: NDM-1 IC50
Method in brief: as §1

[8] = system: P. aeruginosa expressing IMP-1, efflux+ (MB9798); assay type: cell-based, Pseudomonas aeruginosa; settings: for P. aeruginosa expressing IMP-1, efflux+ (MB9798) MITC95: imipenem at 2 μg/mL, in the presence of a class A, C, D serine β-lactamase inhibitor closely related to relebactam; for Efflux ratio: ratio MITC95 PA_9798/MITC95 PA_9799
Text: as §3

[9] = CCF2-FA substrate, 2 hours at 25° C, read-out: IMP-1 IC50

IMP-1, sequence (P52699 whole entry, looked up, species assumed): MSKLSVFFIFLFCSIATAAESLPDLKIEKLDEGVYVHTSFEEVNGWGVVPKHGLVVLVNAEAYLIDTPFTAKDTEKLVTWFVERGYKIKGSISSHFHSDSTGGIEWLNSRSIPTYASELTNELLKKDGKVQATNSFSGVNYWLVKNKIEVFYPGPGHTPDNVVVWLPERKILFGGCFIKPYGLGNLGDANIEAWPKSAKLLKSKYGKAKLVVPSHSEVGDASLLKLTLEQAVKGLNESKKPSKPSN
NDM-1, sequence (C7C422 whole entry, looked up, species assumed): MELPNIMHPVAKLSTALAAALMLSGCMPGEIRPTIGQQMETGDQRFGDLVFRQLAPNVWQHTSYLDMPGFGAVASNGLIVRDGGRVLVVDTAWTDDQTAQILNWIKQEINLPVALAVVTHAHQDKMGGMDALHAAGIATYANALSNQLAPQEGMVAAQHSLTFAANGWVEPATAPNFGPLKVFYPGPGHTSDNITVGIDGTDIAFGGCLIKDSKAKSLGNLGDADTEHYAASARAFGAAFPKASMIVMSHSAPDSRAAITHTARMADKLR

Row | SMILES | IC50 [1] | Escherichia coli MITC95 [2] | Klebsiella pneumoniae MITC95 [3] | Serratia marcescens MITC95 [4] | P. aeruginosa expressing IMP-1, efflux− (MB9799) MITC95 [5] | IC50 [6] | IC50 [7] | P. aeruginosa expressing IMP-1, efflux+ (MB9798) MITC95 [8] | Efflux ratio [8] | Escherichia coli expressing NDM-1 (CLB30016) MITC95 [2] | Klebsiella pneumoniae expressing VIM-1 (IHMA599644) MITC95 [3] | Serratia marcescens expressing IMP-1 (CL5741) MITC95 [4] | IC50 [6, 9]
1 | Nc1nc2c(-c3ccc(S(=O)(=O)C4CCNCC4)c(S(N)(=O)=O)c3-c3nn[nH]n3)cccc2s1 [Example 315, 3-(2-aminobenzo[d]thiazol-4-yl)-6-(piperidin-4-ylsulfonyl)-2-(2H-tetrazol-5-yl)benzenesulfonamide] | 251 pM | 1.563 µM | 3.125 µM | 1.563 µM | 0.7813 µM | 249 pM | 113 pM | 0.7813 µM | 1.00 |  |  |  | 
2 | N#CC1(c2ccc(-c3ccc(S(=O)(=O)CCN)c(S(N)(=O)=O)c3-c3nnn[nH]3)cn2)CNC1.O=C(O)C(F)(F)F [Example 132, 2-((4-(6-(3-cyanoazetidin-3-yl)pyridin-3-yl)-2-sulfamoyl-3-(1H-tetrazol-5-yl)phenyl)sulfonyl)ethanaminium 2,2,2-trifluoroacetate] | 1550 pM |  |  |  | 1.563 µM |  | 3500 pM | 6.25 µM | 4.00 | 0.7813 µM | 3.125 µM | 1.563 µM | 1490 pM
3 | NS(=O)(=O)c1c(S(=O)(=O)C2CNC2)ccc(-c2ccc3ccncc3c2)c1-c1nnn[nH]1.O=C(O)C(F)(F)F [Example 131, 3-((4-(isoquinolin-7-yl)-2-sulfamoyl-3-(1H-tetrazol-5-yl)phenyl)sulfonyl)azetidin-1-ium 2,2,2-trifluoroacetate] | 130 pM |  |  |  | 1.563 µM |  | 345 pM | 25 µM | 15.99 | 0.7813 µM | 3.125 µM | 3.125 µM | 510 pM
4 | Nc1nc2cccc(-c3ccc(S(=O)(=O)[C@H]4CC[C@H](N)CC4)c(S(N)(=O)=O)c3-c3nn[nH]n3)c2[nH]1 [Example 178, 3-(2-amino-3H-benzo[d]imidazol-4-yl)-6-((1r,4r)-4-aminocyclohexylsulfonyl)-2-(2H-tetrazol-5-yl)benzenesulfonamide] | 660 pM |  |  |  | 0.7813 µM |  | 275 pM | 0.7813 µM | 1.00 | 0.3906 µM | 1.563 µM | 0.7813 µM | 990 pM
5 | Cc1cc(-c2ccc(S(=O)(=O)CCN)c(S(N)(=O)=O)c2-c2nnn[nH]2)cnc1N.O=C(O)C(F)(F)F [Example 172, 2-((4-(6-amino-5-methylpyridin-3-yl)-2-sulfamoyl-3-(1H-tetrazol-5-yl)phenyl)sulfonyl)ethanaminium 2,2,2-trifluoroacetate] | 193 pM |  |  |  | 1.781 µM |  | 2980 pM | 6.25 µM | 3.51 | 0.25 µM | 3.125 µM | 1.281 µM | 4900 pM
6 | NCCS(=O)(=O)c1ccc(-c2cccc3sc(N)nc23)c(-c2nn[nH]n2)c1S(N)(=O)=O [Example 313, 3-(2-aminobenzo[d]thiazol-4-yl)-6-((2-aminoethyl)sulfonyl)-2-(2H-tetrazol-5-yl)benzenesulfonamide] | 232 pM | 1.618 µM | 2.009 µM | 1.228 µM | 0.8929 µM |  | 155 pM | 0.6138 µM | 0.69 |  |  |  | 257 pM
7 | NC[C@H](O)CS(=O)(=O)c1ccc(-c2cccc3[nH]c(N)nc23)c(-c2nn[nH]n2)c1S(N)(=O)=O [Example 282, 3-(2-amino-1H-benzo[d]imidazol-4-yl)-6-((S)-3-amino-2-hydroxypropylsulfonyl)-2-(2H-tetrazol-5-yl)benzenesulfonamide] | 280 pM | 0.3438 µM | 0.8359 µM | 0.5156 µM | 0.418 µM |  | 157 pM | 0.418 µM | 1.00 |  |  |  | 777 pM
8 | Cc1ccc(-c2ccc(S(=O)(=O)[C@H]3CCNC3)c(S(N)(=O)=O)c2-c2nn[nH]n2)c2nc(N)sc12 [Example 188, 3-(2-amino-7-methylbenzo[d]thiazol-4-yl)-6-((S)-pyrrolidin-3-ylsulfonyl)-2-(2H-tetrazol-5-yl)benzenesulfonamide] | 113 pM |  |  |  | 0.7813 µM |  | 43.5 pM | 1.563 µM | 2.00 | 1.563 µM | 1.563 µM | 0.7813 µM | 109 pM
9 | CCCn1c(N)nc2c(-c3ccc(S(=O)(=O)C4CNC4)c(S(N)(=O)=O)c3-c3nn[nH]n3)cccc21 [Example 289, 3-(2-amino-1-propyl-1H-benzo[d]imidazol-4-yl)-6-(azetidin-3-ylsulfonyl)-2-(2H-tetrazol-5-yl)benzenesulfonamide] | 407 pM | 0.3906 µM | 3.125 µM | 1.563 µM | 1.563 µM |  | 120 pM | 12.5 µM | 8.00 |  |  |  | 299 pM
10 | NCCS(=O)(=O)c1ccc(-c2ccc3c(c2)CC(=O)N3)c(-c2nnn[nH]2)c1S(N)(=O)=O.O=C(O)C(F)(F)F [Example 157, 2-((4-(2-oxoindolin-5-yl)-2-sulfamoyl-3-(1H-tetrazol-5-yl)phenyl)sulfonyl)ethanaminium 2,2,2-trifluoroacetate] | 295 pM |  |  |  | 0.7813 µM |  | 1940 pM | 12.5 µM | 16.00 | 1.563 µM | 3.125 µM | 1.563 µM | 1890 pM
11 | NC[C@@H](O)CS(=O)(=O)c1ccc(-c2cccc3[nH]cnc23)c(-c2nn[nH]n2)c1S(N)(=O)=O [Example 361, (R)-6-((3-amino-2-hydroxypropyl)sulfonyl)-3-(1H-benzo[d]imidazol-4-yl)-2-(2H-tetrazol-5-yl) benzenesulfonamide] | 253 pM | 0.7813 µM | 1.563 µM | 0.7813 µM | 0.7813 µM |  | 90.5 pM | 0.7813 µM | 1.00 |  |  |  | 174 pM
12 | NCCS(=O)(=O)c1ccc(-c2cccc3c2NC(=O)C3O)c(-c2nnn[nH]2)c1S(N)(=O)=O (stereo not drawn) [Example 347, 6-((2-Aminoethyl)sulfonyl)-3-(3-hydroxy-2-oxoindolin-7-yl)-2-(1H-tetrazol-5-yl)benzenesulfonamide] | 933 pM | 3.125 µM | 6.25 µM | 1.563 µM | 3.125 µM |  | 1730 pM | 12.5 µM | 4.00 |  |  |  | 1340 pM
13 | Nc1ccc(-c2ccc(S(=O)(=O)C3CCNCC3)c(S(N)(=O)=O)c2-c2nn[nH]n2)cn1 [Example 24, 3-(6-aminopyridin-3-yl)-6-(piperidin-4-ylsulfonyl)-2-(2H-tetrazol-5-yl)benzenesulfonamide] | 218 pM |  |  |  | 1.563 µM |  | 382 pM | 3.125 µM | 2.00 | 3.125 µM | 3.125 µM | 3.125 µM | 528 pM
